Reference: article PMC7703574 (Journal of medicinal chemistry, 2020)

Legend:
HIV-1 Env pseudoviruses = conditions: despite low nanomolar potency; cited from earlier work
Caco-2 cell monolayer = conditions: no inhibitor; cited from earlier work
[1] = phosphate buffer, pH7.4; cited from earlier work
[2] = Cytotoxicity in TZM-bl cells; type: cell-based; conditions: human
U87-CD4-CXCR4 cells = assay: Cytotoxicity in U87-CD4-CXCR4 cells; type: cell-based; conditions: at the doses used for this assay
CYP3A = assay: Cytochrome P450 inhibition CYP3A; type: in vitro ADME; conditions: human
Cf2Th-CCR5 cells = assay: Cytotoxicity in Cf2Th-CCR5 cells; type: cell-based
CYP450 enzymes = assay: Cytochrome P450 inhibition, set of CYP450 enzymes; type: in vitro ADME
VSV-G pseudovirus = type: cell-based; conditions: control for HIV-1 specificity
[3] = Metabolic stability in human liver microsomes; type: in vitro ADME

SMILES: COc1ccnc2[nH]cc(C(=O)C(=O)N3CCN(C(=O)c4ccccc4)C[C@H]3C)c12 [BMS-378806, 4-benzoyl-1-[(4-methoxy-1H-pyrrolo-[2,3-b]pyridin-3-yl)oxoacetyl]-2-(R)-methylpiperazine]
- activity against A, C, and D subtypes (HIV-1 Env pseudoviruses): weaker activity

SMILES: COc1cnc(-n2cnc(C)n2)c2[nH]cc(C(=O)C(=O)N3CCN(C(=O)c4ccccc4)CC3)c12 [BMS-626529]
- Caco-2 permeability mean Papp A-to-B (Caco-2 cell monolayer): 9.27e-06 cm/s
- Caco-2 permeability mean Papp B-to-A (Caco-2 cell monolayer): 3.2e-05 cm/s
- solubility [1]: 0.047 to 0.237 mg/mL

SMILES: NC[C@H](NC(=O)c1ccc(-c2ccc(C(F)(F)F)cn2)[nH]1)c1ncc(CO)s1 [Compound 6, N-(2-Amino-1-(5-(hydroxymethyl)thiazol-2-yl)ethyl)-5-(5-(trifluoromethyl)pyridin-2-yl)-1H-pyrrole-2-carboxamide]
- CC50 at 3 d [2]: > 122 µM

SMILES: Cc1cc(-c2ccc(C(F)(F)F)cn2)[nH]c1C(=O)N[C@@H](CN)c1ncc(CO)s1 [Compound 8, N-(2-Amino-1-(5-(hydroxymethyl)thiazol-2-yl)ethyl)-3-methyl-5-(5-(trifluoromethyl)pyridin-2-yl)-1H-pyrrole-2-carboxamide]
- toxicity in the U87-CD4-CXCR4 cell line (U87-CD4-CXCR4 cells): did not induce toxicity
- IC50 (CYP3A; probe midazolam): > 100 µM
- IC50 (CYP3A; probe testosterone): > 62.2 µM
- toxicity at the doses used in this assay (Cf2Th-CCR5 cells): did not show toxicity
- inhibition of CYP1A2, CYP2B6, and CYP3A (CYP450 enzymes; at greater than 50 μM dose levels): no inhibition
- inhibition of the other CYP450 enzymes (CYP450 enzymes; at the 100 μM dose level): No inhibitory activities
- activity against the pseudovirus VSV-G (VSV-G pseudovirus): poorly active
- microsomal CLint [3]: < 11.6 µL/min/mg

SMILES: NC[C@@H](NC(=O)c1ccc(-c2ccc(C(F)(F)F)cn2)[nH]1)c1ncc(C(O)CO)s1 (stereo partly shown) [Compound 13, N-(2-Amino-1-(5-(1,2-dihydroxyethyl)thiazol-2-yl)ethyl)-5-(5-(trifluoromethyl)pyridin-2-yl)-1H-pyrrole-2-carboxamide]
- CC50 at 3 d [2]: > 113 µM

SMILES: NC[C@H](NC(=O)c1ccc(-c2ccc(Cl)cn2)[nH]1)c1nc(CO)cs1 [Compound 16, N-(2-Amino-1-(4-(hydroxymethyl)thiazol-2-yl)ethyl)-5-(5-chloropyridin-2-yl)-1H-pyrrole-2-carboxamide]
- CC50 at 3 d [2]: > 132 µM

SMILES: NC[C@@H](NC(=O)c1ccc(-c2ccc(F)cn2)[nH]1)c1nc(CO)cs1 [Compound 17, N-(2-Amino-1-(4-(hydroxymethyl)thiazol-2-yl)ethyl)-5-(5-fluoropyridin-2-yl)-1H-pyrrole-2-carboxamide]
- CC50 at 3 d [2]: > 138 µM

SMILES: Cc1ccc(-c2ccc(C(=O)N[C@H](CN)c3nc(CO)cs3)[nH]2)nc1 [Compound 19, N-(2-Amino-1-(4-(hydroxymethyl)thiazol-2-yl)ethyl)-5-(5-methylpyridin-2-yl)-1H-pyrrole-2-carboxamide]
- CC50 at 3 d [2]: > 140 µM

SMILES: NC[C@@H](NC(=O)c1ccc(-c2ccc(C(F)(F)F)cn2)[nH]1)c1nc(C(O)CO)cs1 (stereo partly shown) [Compound 29, N-(2-Amino-1-(4-(1,2-dihydroxyethyl)thiazol-2-yl)ethyl)-5-(5-(trifluoromethyl)pyridin-2-yl)-1H-pyrrole-2-carboxamide]
- CC50 at 3 d [2]: > 113 µM

SMILES: Cc1cc(-c2ccc(C(F)(F)F)cn2)[nH]c1C(=O)N[C@H](CN)c1nc(CO)cs1 [Compound 33, N-(2-Amino-1-(4-(hydroxymethyl)thiazol-2-yl)ethyl)-3-methyl-5-(5-(trifluoromethyl)pyridin-2-yl)-1H-pyrrole-2-carboxamide]
- toxicity in the U87-CD4-CXCR4 cell line (U87-CD4-CXCR4 cells): did not induce toxicity
- toxicity at the doses used in this assay (Cf2Th-CCR5 cells): did not show toxicity
- activity against the pseudovirus VSV-G (VSV-G pseudovirus): poorly active
- CC50 at 72 h [2]: 85 ± 3 µM

SMILES: NC[C@H](NC(=O)c1ccc(-c2ccc(C(F)(F)F)cn2)[nH]1)c1nc(CO)c(CO)s1 [Compound 36, N-(2-Amino-1-(4,5-bis(hydroxymethyl)thiazol-2-yl)ethyl)-5-(5-(trifluoromethyl)pyridin-2-yl)-1H-pyrrole-2-carboxamide]
- CC50 at 3 d [2]: > 113 µM

SMILES: NC[C@@H](NC(=O)c1ccc(-c2ccc(Cl)nc2)[nH]1)c1nc(CO)cs1 [Compound 39, N-(2-Amino-1-(4-(hydroxymethyl)thiazol-2-yl)ethyl)-5-(6-chloropyridin-3-yl)-1H-pyrrole-2-carboxamide]
- CC50 at 3 d [2]: > 132 µM

SMILES: NC[C@@H](NC(=O)c1ccc(-c2ccc(C(F)(F)F)nc2)[nH]1)c1nc(CO)cs1 [Compound 41, N-(2-Amino-1-(4-(hydroxymethyl)thiazol-2-yl)ethyl)-5-(6-(trifluoromethyl)pyridin-3-yl)-1H-pyrrole-2-carboxamide]
- CC50 at 3 d [2]: > 122 µM

SMILES: NC[C@H](NC(=O)c1ccc(-c2ccc(C(F)(F)F)nn2)[nH]1)c1nc(CO)cs1 [Compound 44, N-(2-Amino-1-(4-(hydroxymethyl)thiazol-2-yl)ethyl)-5-(6-(trifluoromethyl)pyridazin-3-yl)-1H-pyrrole-2-carboxamide]
- CC50 at 3 d [2]: > 73 µM

SMILES: NC[C@@H](NC(=O)c1ccc(-c2ncc(Cl)cn2)[nH]1)c1nc(CO)cs1 [Compound 45, N-(2-Amino-1-(4-(hydroxymethyl)thiazol-2-yl)ethyl)-5-(5-chloropyrimidin-2-yl)-1H-pyrrole-2-carboxamide]
- CC50 at 3 d [2]: > 66 µM

SMILES: COc1cc(-c2ccc(C(=O)N[C@H](CN)c3nc(CO)cs3)[nH]2)ccn1 [Compound 47, N-(2-Amino-1-(4-(hydroxymethyl)thiazol-2-yl)ethyl)-5-(2-methoxypyridin-4-yl)-1H-pyrrole-2-carboxamide]
- CC50 at 3 d [2]: > 133 µM
